This passage reports IC50 results from patent US20200247812A1 (Integral Biosciences Private Limited, priority 2018, published 2020).

Each structure is given as a SMILES string.

In the experiment the target is T1, ALK 5 (Homo sapiens, UniProt P36897).
T1 sequence (P36897 34-503): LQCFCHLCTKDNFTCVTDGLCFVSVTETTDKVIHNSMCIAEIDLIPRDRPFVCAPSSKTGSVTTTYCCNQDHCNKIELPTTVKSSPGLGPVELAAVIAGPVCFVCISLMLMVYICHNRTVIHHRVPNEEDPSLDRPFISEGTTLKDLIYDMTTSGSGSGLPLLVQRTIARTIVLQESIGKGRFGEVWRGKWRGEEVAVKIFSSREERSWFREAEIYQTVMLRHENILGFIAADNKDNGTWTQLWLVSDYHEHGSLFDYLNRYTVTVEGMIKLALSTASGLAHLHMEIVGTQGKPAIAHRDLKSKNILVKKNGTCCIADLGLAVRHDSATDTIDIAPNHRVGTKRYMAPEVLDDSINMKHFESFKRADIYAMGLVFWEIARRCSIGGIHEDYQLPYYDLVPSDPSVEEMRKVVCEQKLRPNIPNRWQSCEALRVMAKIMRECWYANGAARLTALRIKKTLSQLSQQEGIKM
Kind of experiment: In vitro kinase assay (ALK5 IC50, LanthaScreen Terbium labeled TR-FRET). The following applies: TGF-β kinase 6 nM, ATP 10 μM, read-out: Enzyme Activity ALK 5 IC50. In kind it is biochemical. As to the method:
Compounds of the invention were screened in an in vitro kinase assay against ALK 5, a members of the TGF-β family of Ser/Thr kinases. Standard kinase testing conditions and techniques were employed. IC50 values of compounds against TGF-ß kinase was determined by LanthaScreen™ Terbium Labeled TR-FRET assay. Kinase assays were performed in 1X kinase buffer (# PV6135, Invitrogen, Life Technologies Grand Island, N.Y.) where total reaction volume was 10 μL in low-volume 384-well plates (#4511, Corning). Serially diluted compounds (3-fold) were incubated with TGF-β kinase (6 nM) for 10 min, following which a mixture of ATP (10 μM) (# A1852, Sigma, St-Louis, Mo.) and fluorescent-PolyGT substrate (200 nM); Cat # PV3610, Invitrogen, Life Technologies Grand Island, N.Y.) was added and incubated in dark at room temperature for 1 h. After 1 h, 10 μL stop solution containing Terbium labeled antibody (4 nM; Cat # PV3529, Invitrogen, Life Technologies Grand Island, N.Y.) and EDTA (# E5134, Sigma, St-Louis, Mo.; 20 mM) in TR-FRET dilution buffer (Cat # PV3574, Invitrogen, Life Technologies Grand Island, N.Y.) was added. Readings were taken in a Synergy Neo Plate reader (BioTek, Winooski) at single excitation of 340 nm and Dual emission at 495 nm and 520 nm respectively.
The % activity of test samples was calculated as (Sample-Min)×100/(Max −Min). [Max: DMSO control, complete reaction with enzyme with DMSO and Min: No enzyme with DMSO]. Percent inhibition (100-% activity) was fitted to the “four-parameter logistic model” in XLfit for determination of IC50 values.

Consider `CN(C)c1[nH]c(=O)c(-c2cc(Cl)ccc2F)cc1Nc1ccnc2cc(C(F)(F)F)ccc12` [Compound 1.33, 3-(5-chloro-2-fluorophenyl)-6-(dimethylamino)-5-((7-(trifluoromethyl)quinolin-4-yl)amino)pyridin-2(1H)-one], for which the IC50 was in the range of 2 to 5 µM.
Consider `CC(C)c1[nH]c(=O)c(-c2cc(Cl)ccc2F)cc1Nc1ccnc(NC(=O)CN2CCOCC2)c1` [Compound 1.65, N-(4-((5-(5-chloro-2-fluorophenyl)-2-isopropyl-6-oxo-1,6-dihydropyridin-3-yl)amino)pyridin-2-yl)-2-morpholinoacetamide], for which the IC50 was over 5 µM.
With `CC(C)c1[nH]c(=O)c(-c2ccc(F)c(Cl)c2)cc1Nc1ncnc2c1CC(=O)N2` [Compound 1.85, 4-((5-(3-chloro-4-fluorophenyl)-2-isopropyl-6-oxo-1,6-dihydropyridin-3-yl)amino)-5,7-dihydro-6H-pyrrolo[2,3-d]pyrimidin-6-one], the IC50 fell in the range of 0.5 to 2 µM.
Under `C[C@@H](O)CNC(=O)c1cnccc1Nc1cc(-c2cc(Cl)ccc2F)c(=O)n2c1N(C)CCC2` [Compound 1.26, (R)-4-((7-(5-chloro-2-fluorophenyl)-1-methyl-6-oxo-1,3,4,6-tetrahydro-2H-pyrido[1,2-a]pyrimidin-9-yl)amino)-N-(2-hydroxypropyl)nicotinamide] stands over 5 µM; under `NC(=O)c1cnccc1Nc1cc(-c2cc(Cl)ccc2F)c(=O)[nH]c1C1CC1` [Compound 1.74, 4-((5-(5-chloro-2-fluorophenyl)-2-cyclopropyl-6-oxo-1,6-dihydropyridin-3-yl)amino)nicotinamide], at most 0.5 µM; under `CC(=O)Nc1cc(Nc2cc(-c3ccc(F)c(Cl)c3)c(=O)[nH]c2C(C)C)ccn1` [Compound 1.58, N-(4-((5-(3-chloro-4-fluorophenyl)-2-isopropyl-6-oxo-1,6-dihydropyridin-3-yl)amino)pyridin-2-yl)acetamide], at most 0.5 µM.
Consider `C[C@@H](CO)NC(=O)c1cnccc1Nc1cc(-c2cc(Cl)ccc2F)c(=O)n2c1N(C)CCC2` [Compound 1.21, (S)-4-((7-(5-chloro-2-fluorophenyl)-1-methyl-6-oxo-1,3,4,6-tetrahydro-2H-pyrido[1,2-a]pyrimidin-9-yl)amino)-N-(1-hydroxypropan-2-yl)nicotinamide], for which the 50% inhibitory concentration (IC50) lay within 0.5 to 2 µM.
Regarding `C[C@H](O)CNC(=O)c1cnccc1Nc1cc(-c2cc(Cl)ccc2F)c(=O)[nH]c1N(C)C` [Compound 1.9, (S)-4-((5-(5-chloro-2-fluorophenyl)-2-(dimethylamino)-6-hydroxypyridin-3-yl)amino)-N-(2-hydroxypropyl)nicotinamide], the IC50 was in the range of 2 to 5 µM.
Consider `CC(=O)Nc1cc(Nc2cc(-c3cc(Cl)c(C)cc3F)c(=O)[nH]c2C(C)C)ccn1` [Compound 1.64, N-(4-((5-(5-chloro-2-fluoro-4-methylphenyl)-2-isopropyl-6-oxo-1,6-dihydropyridin-3-yl)amino)pyridin-2-yl)acetamide], for which the IC50 was over 5 µM.
Regarding `CCc1[nH]c(=O)c(-c2ccc(F)c(Cl)c2)cc1Nc1ccnc2[nH]ccc12` [Compound 1.90, 5-((1H-pyrrolo[2,3-b]pyridin-4-yl)amino)-3-(3-chloro-4-fluorophenyl)-6-ethylpyridin-2(1H)-one], the IC50 was at most 0.5 µM.
Regarding `C[C@H](CO)NC(=O)c1cnccc1Nc1cc(-c2cc(Cl)ccc2F)c(=O)n2c1N(C)CCC2` [Compound 1.25, (R)-4-((7-(5-chloro-2-fluorophenyl)-1-methyl-6-oxo-1,3,4,6-tetrahydro-2H-pyrido[1,2-a]pyrimidin-9-yl)amino)-N-(1-hydroxypropan-2-yl)nicotinamide], the 50% inhibitory concentration (IC50) was over 5 µM.
For the compound `C[C@@H](CO)NC(=O)c1cnccc1Nc1cc(-c2cc(Cl)ccc2F)c(=O)n(C)c1` [Compound 1.8, (S)-4-((5-(5-chloro-2-fluorophenyl)-1-methyl-6-oxo-1,6-dihydropyridin-3-yl)amino)-N-(1-hydroxypropan-2-yl)nicotinamide], the IC50 is over 5 µM.
The figure for `CC(O)CNC(=O)c1cnccc1Nc1c[nH]c(=O)c(-c2cc(Cl)ccc2F)c1` (centres unmarked) [Compound 1.1, 4-((5-(5-chloro-2-fluorophenyl)-6-oxo-1,6-dihydropyridin-3-yl)amino)-N-(2-hydroxypropyl)nicotinamide] is 2 to 5 µM.
On to `O=c1[nH]c(C2CC2)c(Nc2ccnc3ccncc23)cc1-c1cc(Cl)ccc1F` [Compound 1.67, 5-((1,6-naphthyridin-4-yl)amino)-3-(5-chloro-2-fluorophenyl)-6-cyclopropylpyridin-2(1H)-one], for which the half-maximal inhibitory concentration (IC50) is at most 0.5 µM.
Under `CC(C)c1[nH]c(=O)c(-c2cc(Cl)ccc2F)cc1Nc1ccnc(NC(=O)C(C)(C)C)c1` [Compound 1.49, N-(4-((5-(5-chloro-2-fluorophenyl)-2-isopropyl-6-oxo-1,6-dihydropyridin-3-yl)amino)pyridin-2-yl)pivalamide] stands over 5 µM.
For `CSc1[nH]c(=O)c(-c2cc(Cl)ccc2F)cc1Nc1ccnc2ccncc12` [Compound 1.36, 5-((1,6-naphthyridin-4-yl)amino)-3-(5-chloro-2-fluorophenyl)-6-(methylthio)pyridin-2(1H)-one], the half-inhibitory concentration (IC50) was at most 0.5 µM.
`CNC(=O)c1cnccc1Nc1cc(-c2cc(Cl)ccc2F)c(=O)[nH]c1SC` [Compound 1.39, 4-((5-(5-chloro-2-fluorophenyl)-2-(methylthio)-6-oxo-1,6-dihydropyridin-3-yl)amino)-N-methylnicotinamide]: the IC50 is at most 0.5 µM.
The figure for `C[C@@H](O)CNC(=O)c1cnccc1Nc1cc(-c2cc(Cl)ccc2F)c(=O)n2c1N(C)CC2` [Compound 1.24, (R)-4-((6-(5-chloro-2-fluorophenyl)-1-methyl-5-oxo-1,2,3,5-tetrahydroimidazo[1,2-a]pyridin-8-yl)amino)-N-(2-hydroxypropyl)nicotinamide] is over 5 µM.
Under `C[C@@H](CO)NC(=O)c1cnccc1Nc1cc(-c2cc(Cl)ccc2F)c(=O)n(C)c1N(C)C` [Compound 1.17, (S)-4-((5-(5-chloro-2-fluorophenyl)-2-(dimethylamino)-1-methyl-6-oxo-1,6-dihydropyridin-3-yl)amino)-N-(1-hydroxypropan-2-yl)nicotinamide] stands 2 to 5 µM; under `CCc1[nH]c(=O)c(-c2ccc(F)c(Cl)c2)cc1Nc1ccnc(NC(C)=O)c1` [Compound 1.88, N-(4-((5-(3-chloro-4-fluorophenyl)-2-ethyl-6-oxo-1,6-dihydropyridin-3-yl)amino)pyridin-2-yl)acetamide], at most 0.5 µM.
In the case of `CC(=O)Nc1cc(Nc2cc(-c3ccsc3)c(=O)[nH]c2C(C)C)ccn1` [Compound 1.79, N-(4-((2-isopropyl-6-oxo-5-(thiophen-3-yl)-1,6-dihydropyridin-3-yl)amino)pyridin-2-yl)acetamide], the concentration for half-maximal inhibition (IC50) was at most 0.5 µM.
On to `C[C@H](O)CNC(=O)c1cnccc1Nc1cc(-c2cc(Cl)ccc2F)c(=O)n2c1N(C)CCC2` [Compound 1.20, (S)-4-((7-(5-chloro-2-fluorophenyl)-1-methyl-6-oxo-1,3,4,6-tetrahydro-2H-pyrido[1,2-a]pyrimidin-9-yl)amino)-N-(2-hydroxypropyl)nicotinamide], for which the IC50 is over 5 µM.
For `CN(C)c1[nH]c(=O)c(-c2cc(Cl)ccc2F)cc1Nc1ccncc1F` [Compound 1.41, 3-(5-chloro-2-fluorophenyl)-6-(dimethylamino)-5-((3-fluoropyridin-4-yl)amino)pyridin-2 (1H)-one], the IC50 fell in the range of 2 to 5 µM.
Consider `CC(=O)Nc1cc(Nc2cc(-c3cccc(C#N)c3)c(=O)[nH]c2C(C)C)ccn1` [Compound 1.54, N-(4-((5-(3-cyanophenyl)-2-isopropyl-6-oxo-1,6-dihydropyridin-3-yl)amino)pyridin-2-yl)acetamide], for which the IC50 lay within 0.5 to 2 µM.
Turning to `CC(C)c1[nH]c(=O)c(-c2cc(Cl)ccc2F)cc1Nc1ccnc(NS(C)(=O)=O)c1` [Compound 1.63, N-(4-((5-(5-chloro-2-fluorophenyl)-2-isopropyl-6-oxo-1,6-dihydropyridin-3-yl)amino)pyridin-2-yl)methanesulfonamide], the IC50 is over 5 µM.
The figure for `C[C@@H](CO)NC(=O)c1cnccc1Nc1c[nH]c(=O)c(-c2cc(Cl)ccc2F)c1` [Compound 1.2, (S)-4-((5-(5-chloro-2-fluorophenyl)-6-oxo-1,6-dihydropyridin-3-yl)amino)-N-(1-hydroxypropan-2-yl)nicotinamide] is over 5 µM.
